What was measured:
TNF-α = assay: Inhibition of TNF-α in vivo (LPS-challenged mice); parameters: species or system female Balb/c mice; conditions: p.o., LPS 5 mg/kg i.v. after 2 h, serum 1 h after LPS
Method: Compounds are administered p.o. (100, 30, 10 and 3 mg/kg) to female Balb/c mice (5 mice/dose). After 2 h, lipopolysaccharide (LPS, E. coli serotype 0111:B4, 5 mg/kg) is administered i.v. in the tail vein of each mouse. One hour after LPS administration the mice are asphyxiated by CO2 inhalation and bled out via cardiac puncture.
TNF-α/Luminex Detection Assay (Bio-Rad Bio-Plex Kit—Catalog #171-G12221)
Reconstitute the lyophilized premixed TNF-α standard (1 standard tube/two 96-well plates) with 50 μL sterile water (500,000 pg/mL). Gently vortex for 5 seconds, incubate on ice for 30 min, and vortex for 5 seconds before use. Label a set of twelve 1.5 mL tubes with #1-thru #12 and then add the amounts of cell media shown below to the appropriate tubes (standard concentrations are as follows: 50,000; 25,000; 12,500; 6,250; 3,125; 1,562.5; 781.3; 390.6; 195.3; 97.7; 48.8; and 24.4 pg/mL). Vortex the premixed anti-cytokine conjugated beads (25×) vigorously for 30 seconds. Dilute the anti-cytokine conjugated beads to a 1× concentration using 1× Bio-Plex Assay Buffer. […] Read standards and samples on Luminex machine. These intensity readings are then converted to picogram/milliliter units based on a 12-point standard curve created in duplicate using a four-parameter logistic regression method (Bio-Plex Manager 2.0, Bio-Rad), and the IC50 calculated. […]

[1] = tested on: collagen induced arthritis (ankle diameter); assay: Rat collagen induced arthritis efficacy model; type: in vivo, female Lewis rats; conditions: PO bid x 14 days, AUC of composite inflammation scores
Method: Rat Collagen Induced Arthritis Efficacy Model
Female Lewis rats (≅190 g, Charles River Labs) are immunized with Bovine type II collagen (2 mg/mL) emulsified with an equal volume of adjuvant (aluminum hydroxide). […]. The rats are immunized with approximately […] of the emulsion intradermally on the back near the base of the tail. All animals are re-immunized 7 days later according to the same protocol. The rats begin to develop arthritis (characterized by swelling and redness of one or both ankles) from 12 to 14 days after the first immunization. The rats are equally distributed into five treatment groups at the first signs of arthritis and treatment is initiated with each rat dosed bid for 14 days.
Ankle diameter is measured with calipers 5 days a week and recorded. Data is expressed as the area under the curve (AUC) generated from the composite inflammation scores and statistical analysis performed.

[2] = tested on: TNF-α synthesis in synovial lavage fluid; assay: Effect on intra-articular LPS induced TNF-α; type: in vivo, female Lewis rats
Method: Effect on Intra-articular LPS Induced TNF-α
Intra-articular injection of LPS into rat ankles induces the synthesis of TNF-α, which can be measured in synovial lavage fluid. High levels of TNF-α are detectable within 2 hours. Since the joint is the site where arthritis develops, this model can rapidly determine whether an orally administered compound has an effect on an inflammatory response in the synovium.
Six female Lewis rats (150-200 g) are place in each treatment group. The animals are given vehicle (1% NaCarboxymethylcellulose-0.25% Tween 80) or test compound (1 mg/kg, 3 mg/kg, 10 mg/kg, and 30 mg/kg) orally. One hour later, 10 μl LPS (10 μg) is administered intra-articularly into the right ankle of each rat, while the left ankle receives 10 μL of saline. After two hours, each ankle is lavaged with 100 μL of saline. The lavage is collected and stored at −80° C. • Group#1: Vehicle (1% NaCMC-0.25% Tween 80, 1 mL, PO) • Group#2: Test compound (1 mg/kg, 1 mL, PO) • Group#3: Test compound (3 mg/kg, 1 mL, PO) • Group#4: Test compound (10 mg/kg, 1 mL, PO) • Group#5: Test compound (30 mg/kg, 1 mL, PO)
TNF-α is measured with a commercially available ELISA kit (R&D, RTA00).

- IC50 (suppressed TNF-α in vivo) (TNF-α): < 1 mg/kg
Structure (SMILES): CC(C)(C)Cn1c(N)nc2ccc(-c3nc(C(C)(C)C)[nH]c3-c3ccc(F)cc3)nc21.CS(=O)(=O)O.CS(=O)(=O)O [EXAMPLE 104, Crystalline 5-[2-tert-Butyl-5-(4-fluoro-phenyl)-1H-imidazol-4-yl]-3-(2,2-dimethyl-propyl)-3H-imidazo[4,5-b]pyridin-2-ylamine dimethanesulfonate]
- TMED50 [1]: 1.5 mg/kg (b.i.d.)
- inhibition of TNF-α synthesis (in words) ([2]; oral 1, 3, 10, 30 mg/kg): dose-dependent inhibition
- TMED50 (inhibition of TNF-α synthesis) ([2]; oral, LPS intra-articular 1 h later, ankle lavage after 2 h): 0.54 mg/kg

Source: patent US7582652B2, “Kinase inhibitors” (Eli Lilly and Company, priority 2004, dated 2009)
